Measured values from patent US11352382B2, “Mito-lonidamine, compositions and methods of use” (THE MEDICAL COLLEGE OF WISCONSIN, INC., priority 2018, dated 2022).
“Also recorded” adds a separate entry of the source.

Legend:
[1] = system: H2030 and H2030BrM3 cells; assay: Autophagy and mitophagy markers in cell lysates, MDC staining; assay type: cell-based, human
Experimental: Mito-LON induces autophagic cell death in human lung cancer cell lines and lung-derived brain metastatic lines. To investigate potential mechanisms underlying Mito-LON's induction of cancer cell death that result from its inhibition of mitochondrial respiration and induction of ROS, we analyzed lysates of cells treated with Mito-LON [2.0 μM] for 0, 6, 24 and 48 h. Lysates were probed for proteins targeting energetics, apoptosis and autophagy, including selective mitophagy markers. Our data (FIG. 19) show Mito-LON treatment [2.0 μM] modulates key autophagy proteins, including specific mitophagy receptors, adaptor proteins and energy sensing molecules in H2030 lung cancer cells and the corresponding brain metastatic line (H2030BrM3). LC3, microtubule-associated protein light chain 3, is critical for cargo recruitment. The LC3 precursor is modified via an ubiquitination-like system generating soluble LC3-I, which is further modified to LC3-II, a membrane-bound phospholipid conjugate upon autophagy induction. LC3-II integrates into the autophagosome membrane and is considered a reliable early marker of autophagy induction. Mito-LON treatment (FIG. 19A) increased levels of LC3-II 1.9 to 4.4-fold across cell lines, with sustained modulation through 48 h. The LC3-interacting region (LIR) serves as a mechanistic basis for selective autophagy, including mitophagy which specifically targets degradation of damaged mitochondria via engagement of adaptor proteins (p62, NBR1, OPTN, BNIP3L). We evaluated the effects of Mito-LON on ubiquitin-binding mitophagy receptors (p62, NDP52, NBR1) which also indicate autophagic flux versus potential impairment of autophagosome turnover. […] Changes were consistently bimodal in Mito-LON treated H2030 cells, potentially due to P62's dual role in mitophagy, both in clustering of mitochondria as well as downstream degradation. […] PINK1 was included as an indicator of PINK1-Parkin dependent mitophagy. Basal levels of PINK1 are normally low with increases due to mitochondrial depolarization, damage and ATP alterations, as noted in both cell lines. Beclin1 (BECN1), an autophagy regulator and potential tumor suppressor gene product in multiple cancers, including NSCLC.
Thus, autophagy induction in the lung derived brain metastatic line may be BECN1-independent. […] NRF2, a major regulator of cellular stress responses, was not detectable in either cell line. FIG. 19B further supports autophagy induction by Mito-LON. […] Specifically, Mito-LON alters phosphorylation events and activating partners in parallel. As an example, P-P70S6K^Thr389 phosphorylates mTOR^Ser2448; both reduced in Mito-LON treated cells. Similarly, ULK is activated by AMPK, and both phosphoproteins are decreased by Mito-LON, as is P-PTEN.

A/J mice = assay: 8-week toxicology study (maximum tolerated dose, Modified Irwin Screen); assay type: in vivo, mouse
Excerpt: Maximum tolerated dose (MTD) of Mito-LON. We conducted an 8-week toxicology study to evaluate possible toxicity of Mito-LON, especially on neural and muscle cells using a Modified Irwin Screen, developed as a comprehensive observational battery to broadly screen for central nervous system (CNS) effects of agents. Modifications of this test are extensively used in the pharmaceutical industry and in academic research to identify changes in neurological function as a result of agent intoxication, neurotoxicity, or genetic manipulation. The screen used here employs 35 distinct measurements to assess sensorimotor, neurological, and autonomic nervous system function^78. The effective dose (ED) of Mito-LON is designated as 7.5 μmol/kg based on our preliminary data (FIGS. 24 & 25).

[2] = system: PC9BrM3 and H2030BrM3 brain metastasis lung cancer cell lines; assay: Boyden chamber (transwell) invasion assay; assay type: cell-based; conditions: Homo sapiens, H2030-BrM3, read-out: inhibitory effect on invasion when used alone
Excerpt: Mito-LON inhibits migration and invasion of brain metastatic human lung cancer cells. To investigate the potential of Mito-LON and LON for lung cancer metastasis, we first tested its effects in vitro via the Boyden chamber invasion assay using PC9BrM3 and H2030BrM3 brain metastasis lung cancer cell lines.

[3] = system: phosphorylated ERK and AKT in H2030BrM3 cells; assay: Receptor tyrosine kinase assay and Western blots of ERK and AKT phosphorylation; assay type: cell-based, human
Excerpt: Role of HK2 and additional possible signaling events that contribute to the effects of Mito-LON. […] This could contribute to their effects as many cancers have constitutive ERK activation which promotes survival and proliferation, and ERK1 can play an important role in regulating mitochondrial activity, apoptosis, proliferation and migration. […] AKT is another pro-survival factor that is constitutively activated (phosphorylated) in many cancers.

mitochondrial Prx3 = assay: Redox status of mitochondrial peroxiredoxin; assay type: cell-based, human; conditions: lung cancer cells
Excerpt: Inhibition of mitochondrial respiration results in increased O2^⋅− and other oxidants.

[4] = system: H2030 and H2030BrM3 cells; assay: Apoptosis markers in treated cells; assay type: cell-based, human
Excerpt: Mito-LON's effects on inducing apoptosis in human lung cancer cell lines and their lung-derived brain metastatic lines. Results from Mito-LON-treated H2030 and H2030BrM3 cells (FIG. 20) supports cell death induction is mainly via autophagy rather than caspase-dependent apoptosis.

intact lung cancer cells = assay: Cellular respiration (oxygen consumption rate, OCR) in intact lung cancer cells; assay type: cell-based, human; conditions: not shown
Excerpt: (§1) LON and Mito-LON inhibit mitochondrial complex I activity. Mito-LON inhibited cellular respiration (oxygen consumption rate, OCR) at >100-fold lower concentration than LON in intact lung cancer cells (FIG. 9). Both basal respiration and the response to mitochondrial stressors (oligomycin, dinitrophenol) were diminished by Mito-LON (not shown). To investigate the mechanism of mitochondrial inhibition, we measured the activity of mitochondrial complexes in H2030BrM3 cells (NSCLC cell line). The cell membrane was permeabilized, and OCR was measured upon addition of substrates and inhibitors of mitochondrial complexes I-IV (FIG. 9A). These studies established the optimal use of permeabilized cells for complex activity assays.^54 Next, cells were pretreated with LON and Mito-LON for 24 h and experiments performed as in FIG. 9A. […] We hypothesize that inhibition of mitochondrial complexes I and II is the predominant mechanism for antiproliferative effects of Mito-LON on lung cancer cells.

Pancreatic cancer cells = assay: Anti-proliferative effects in pancreatic cancer cells (number of cells over time); assay type: cell-based, human
Experimental: Pancreatic cancer cells were treated with either LND or Mito-LND at varying concentrations and the number of cells was assayed over time.

mitochondrial Complex I = assay: Mitochondrial complex I activity (OCR) in permeabilized H2030BrM3 cells after 24 h pretreatment; assay type: cell-based, human
Excerpt: as §1

O=C(NCCCCCCCCCC[P+](c1ccccc1)(c1ccccc1)c1ccccc1)c1nn(Cc2ccc(Cl)cc2Cl)c2ccccc12 [Mito-LON, Mito10-lonidamine]
NDP52 ([1]; 2.0 μM): paralleled P62 changes | Beclin-1 levels ([1]; 2.0 μM, H2030 and H2030-BrM3 cells): increased Beclin-1 levels in H2030 cells but not in H2030-BrM3 cells | autophagic vacuolization (bright field) ([1]; 2.0 μM, H2030 cells): markedly increased vacuolization | monodansylcadaverine (MDC) staining ([1]; 2.0 μM, H2030 cells): stained positive for MDC | P62 ([1]; 2.0 μM, both cell lines): modulated P62 in both cell lines | autophagy-initiating energy-sensing proteins of the AKT/mTOR signaling pathway ([1]; FIG. 19C): deactivates | RAB7 levels ([1]; H2030BrM3 cells): increased levels of RAB7 | toxicity overall (A/J mice; doses up to 50× ED): did not show any toxicity | body weights (and organ weights) and 35 Modified Irwin Screen metrics versus control (A/J mice; up to 50× ED, A/J mice, 8-weeks treatment): didn't observe any significant differences | toxic effects in neural tissue and muscles by histopathology, liver function (serum AST and ALT) (A/J mice; up to 50× ED, A/J mice, 8 weeks): No toxic effects | inhibition at 0.6 µM [2]: < 10% | phosphorylated AKT levels [3]: decreased phosphorylated AKT levels | phosphorylated ERK levels ([3]; confirmed by Western blots): decreased phosphorylated ERK levels | oxidation of mitochondrial Prx3 (mitochondrial Prx3): oxidizes mitochondrial Prx3; also recorded: pronounced oxidation | oxidation of mitochondrial Prx3 (mitochondrial Prx3; listed as Mito-LDN): oxidizes mitochondrial Prx3 | caspase cleavage [4]: did not induce caspase cleavage | cleaved PARP and cytochrome c levels [4]: increased levels of cleaved PARP and cytochrome c | basal respiration and response to mitochondrial stressors (oligomycin, dinitrophenol) (intact lung cancer cells): diminished | IC50 (Pancreatic cancer cells; Homo sapiens, Pancreatic cancer cell, read-out: IC50, inhibiting the proliferation of cancer cells): 0.64 µM | fold more effective than LND in anti-proliferative effects (Pancreatic cancer cells; pancreatic cancer cells, FIG. 6): ~500 fold | fold more potent than LON for complex I (mitochondrial Complex I; 24 h pretreatment, FIG. 9B): 370 fold | Ki (mitochondrial Complex I; FIG. 9): 1.2 µM | IC50 (mitochondrial Complex I; H2030BrM3 lung cancer cells, FIG. 9, read-out: IC50, respiratory complex I): 1.2 µM
